The compounds below were run against P-glycoprotein (P-GP) (Homo sapiens, UniProt P08183) (assay: Evaluation as P-Gp substrate: penetration test in MDCKII-MDR1 cells with Verapamil as inhibitor). Conditions: dog, MDCK-MDR1.
Method: The preparation of the […] for the penetration test: • (1) MDCKII-MDR1 cells were cultured in the cell culture bottle. The conditions of the incubator were 37° C., 5% of CO2, and 95% of the relative humidity. When the cell growth confluence was up to 70-90%, the cells were inoculated to the transwell. • (2) Before the cell inoculation, 50 μL of the culture medium was respectively added to every well of the upper compartment of the transwell, and […] of the culture medium was added to the lower compartment. The transwell was incubated in the incubator under 37° C. and 5% CO2. […] The cell suspension was transferred to the upper compartment of the 96-well transwell, wherein each upper compartment contains 50 μL of the cell suspension. The final inoculum density was 5.45×10^5 cells/cm^2. • (5) The culture medium was replaced after inoculating for 48 h. After culturing for 4-8 days, the medium was changed every other day. • (6) The process of replacing the culture medium was as the follow. The upper compartment and the lower compartment were separated. The medium in the lower compartment was discarded, and then the medium in the upper compartment was discarded. Finally, 75 μL of fresh medium was added to each upper compartment and […] of fresh medium was added to the lower compartment.
Evaluation of the Cell Monolayer Integrity • (1) The MDCKII-MER1 cells should be totally confluent and complete the differentiation after culturing for 4-8 days. The MDCKII-MER1 cells can be used for the penetration test at this time. • (2) Millipore was used to measure the resistance of the cell monolayer, and the resistance of every well was recorded. • (3) After the measuring, the transwell was put back to the incubator. • (4) The calculation of the resistance: measured resistance (ohms)×area of the membrane=TEER value (ohm-cm^2). If TERR value was <42 ohm-cm^2, the well would not be used to the penetration test.
Penetration Test of the Drug • (1) The transwell of the MDCKII-MER1 cells was taken out from the incubator. The cell monolayer was rinsed two times by the buffer solution and incubated at 37° C. for 30 min. • (2) The transport rate of the compound from the top to the bottom was tested. […] 200 μL of the acetonitrile containing the internal standard (100 nM Alprazolam, 200 nM Labetalol, 200 nM caffeine and 2 μM Ketoprofen) was added to each sample tube. After the sample tubes were vortexed for 10 min, the sample tubes were centrifuged at 3220 g for 30 min. 100 μL of the supernatant was taken to be diluted with the same volume of the water, and the LC-MS/MS analysis was executed. Each sample was adopted to the three parallel incubation. • (8) After the cell monolayer was incubated for 2 h, the integrity of the cell monolayer was evaluated by the migration assay using the fluorescence yellow, the fluorescence yellow storage solution was diluted by the buffer solution, and the final concentration was 100 μM/L. 100 μL of the fluorescence yellow solution was added to each well of the upper compartment, and 300 μL of the buffer was added to each well of the lower compartment. After the transwell was incubated at 37° C. for 30 min, 80 µL of the solution from each well of the upper compartment and the lower compartment was respectively transferred to a new 96-well plate. ELISA (Enzyme-linked Immunosorbent Assay) reader was used to perform the fluorimetry with the excitation wavelength of 480 nm and the emission wavelength of 530 nm.
The peak area was calculated by the result of the ion chromatography. The permeability coefficient (Papp, unit: cm/s×10^−6) of the compound was calculated by the formula: […]

Sequence of P-glycoprotein (P-GP) (P08183 whole entry): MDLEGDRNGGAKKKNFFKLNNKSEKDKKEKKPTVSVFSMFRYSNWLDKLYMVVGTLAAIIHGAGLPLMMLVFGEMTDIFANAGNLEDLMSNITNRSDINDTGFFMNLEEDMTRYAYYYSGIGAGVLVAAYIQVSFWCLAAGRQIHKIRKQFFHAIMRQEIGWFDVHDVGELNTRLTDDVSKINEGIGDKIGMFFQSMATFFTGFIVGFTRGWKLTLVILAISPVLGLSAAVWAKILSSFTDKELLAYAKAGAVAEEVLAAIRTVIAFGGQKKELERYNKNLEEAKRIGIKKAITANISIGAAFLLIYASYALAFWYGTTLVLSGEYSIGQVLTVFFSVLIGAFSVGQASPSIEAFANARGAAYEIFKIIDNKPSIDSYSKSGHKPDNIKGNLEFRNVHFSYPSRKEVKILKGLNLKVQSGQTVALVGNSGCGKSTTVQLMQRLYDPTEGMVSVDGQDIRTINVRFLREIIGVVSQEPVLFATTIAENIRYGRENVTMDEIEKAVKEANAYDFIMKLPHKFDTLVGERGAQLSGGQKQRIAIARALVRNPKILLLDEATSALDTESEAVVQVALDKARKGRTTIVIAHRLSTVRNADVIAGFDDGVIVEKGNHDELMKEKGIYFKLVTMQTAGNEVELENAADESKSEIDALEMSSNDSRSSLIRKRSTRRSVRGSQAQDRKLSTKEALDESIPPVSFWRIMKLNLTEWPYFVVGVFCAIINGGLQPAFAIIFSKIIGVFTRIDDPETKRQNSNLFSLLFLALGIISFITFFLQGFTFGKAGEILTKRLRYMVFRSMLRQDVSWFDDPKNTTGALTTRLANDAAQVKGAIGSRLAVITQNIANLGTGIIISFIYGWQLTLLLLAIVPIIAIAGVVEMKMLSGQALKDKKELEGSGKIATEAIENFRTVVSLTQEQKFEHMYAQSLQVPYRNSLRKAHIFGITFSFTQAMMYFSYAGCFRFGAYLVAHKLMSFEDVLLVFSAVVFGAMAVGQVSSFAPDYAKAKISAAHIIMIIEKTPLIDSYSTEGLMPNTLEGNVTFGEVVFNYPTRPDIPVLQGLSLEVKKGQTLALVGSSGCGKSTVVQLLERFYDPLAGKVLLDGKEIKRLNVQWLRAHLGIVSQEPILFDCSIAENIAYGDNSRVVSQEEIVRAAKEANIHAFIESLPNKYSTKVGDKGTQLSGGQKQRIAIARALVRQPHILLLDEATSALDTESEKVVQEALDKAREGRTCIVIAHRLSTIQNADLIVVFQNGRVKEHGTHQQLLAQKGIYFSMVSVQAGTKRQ

Row | Structure (SMILES) | efflux ratio at 2 h
1 | O=[N+]([O-])c1ccc(COP(=O)(N2CC2)N2CC2)cc1Oc1ccc(-c2ccc(F)cc2)cc1 [Compound 2] | 1.53
2 | O=[N+]([O-])c1ccc(COP(=O)(N2CC2)N2CC2)cc1Oc1ccc(-c2ccc(F)cc2F)c(F)c1 [Compound 4] | 0.87
3 | O=[N+]([O-])c1ccc(COP(=O)(N2CC2)N2CC2)cc1Oc1ccc(-c2ccc(F)cn2)cc1 [Compound 10] | 1.43
4 | Cc1cc(F)ccc1-c1ccc(Oc2cc(COP(=O)(N3CC3)N3CC3)ccc2[N+](=O)[O-])cc1F [Compound 5] | 1.69
5 | O=[N+]([O-])c1cc(F)c(COP(=O)(N2CC2)N2CC2)cc1Oc1ccc(-c2ccc(F)cc2)cc1 [Compound 3] | 1.2
6 | O=[N+]([O-])c1ccc(C(OP(=O)(N2CC2)N2CC2)C(F)(F)F)cc1Oc1ccc(-c2ccc(F)cc2F)cc1 (stereo not shown) [Compound 14] | 1.26
7 | O=[N+]([O-])c1ccc(COP(=O)(N2CC2)N2CC2)cc1Oc1ccc(-c2ccc(F)cc2)nc1 [Compound 7] | 1.54
8 | Cc1ccc(NC(=O)c2ccc(CN3CCN(C)CC3)cc2)cc1Nc1nccc(-c2cccnc2)n1 [Imatinib, reference compound] | 18.1
9 | O=[N+]([O-])c1ccc(C(OP(=O)(N2CC2)N2CC2)C(F)(F)F)cc1Oc1ccc(-c2ccc(F)cc2)c(F)c1 (stereo not shown) [Compound 15] | 1.36
10 | O=[N+]([O-])c1ccc(C(OP(=O)(N2CC2)N2CC2)C(F)(F)F)cc1Oc1ccc(-c2ccc(F)cc2F)c(F)c1 (stereo not shown) [Compound 16] | 1.96
11 | COc1cc2nc(N3CCN(C(=O)c4ccco4)CC3)nc(N)c2cc1OC [Prazosin, reference compound] | 2.87
12 | O=[N+]([O-])c1ccc(COP(=O)(N2CC2)N2CC2)cc1Oc1ccc(-c2ccc(F)cc2)c(F)c1 [Compound 1] | 1

What follows are compounds tested on H460 (assay: In vitro proliferation of NSCLC human tumor line H460, without or with specific AKR1C3 inhibitor). Conditions: H460 cells, 2 h exposure, washed, further 70 h, Alamar Blue; read-out: Inhibitory effect of the proliferation of the cancer cells IC50.
Format: cell-based
Method: The cytotoxicity analysis of the human tumor cell lines in vitro was used.
IC50 (half maximal inhibitory concentration) values were in nanomoles and were obtained by the following. Cells were exposed in the compounds with different concentration for 2 hours. The compounds were washed off, and fresh medium was added into plates. A growth rate and a cell-survival rate were obtained by cell staining and compared with a control group treated with the medium only.
The compound was dissolved in 100% DMSO at 200 times of the desired final test concentration. When the drug was added, the compound was further diluted at 4 times of the desired final test concentration by the complete medium. 50 μL aliquots of the compound with specific concentration were added to the microwells contained 150 μL of medium, and then the final drug concentration was obtained. […] After the incubation was finished, the Alamar Blue was used to analyze and quantify the alive cells.
Before 2 h of the compound was prepared, the compound with the inhibitor was added to the cell culture. The inhibitor was […]

Row | Structure (SMILES) | IC50
13 | O=[N+]([O-])c1ccc(COP(=O)(N2CC2)N2CC2)cc1Oc1ccc(-c2ccc(F)cc2F)nc1 [Compound 12] | < 1.5 nM

Same assay, conditions: H460 cells, in the presence of specific AKR1C3 inhibitor (TH3021, 3 μmol concentration); read-out: Inhibitory effect of the proliferation of the cancer cells IC50 of +TH3021

Row | Structure (SMILES) | IC50
14 | O=[N+]([O-])c1ccc(COP(=O)(N2CC2)N2CC2)cc1Oc1ccc(-c2ccc(F)cc2)cc1 [Compound 2] | 105 nM
15 | O=[N+]([O-])c1ccc(COP(=O)(N2CC2)N2CC2)cc1Oc1ccc(C(F)(F)F)nc1 [Compound 6] | 38.2 nM
16 | O=[N+]([O-])c1ccc(COP(=O)(N2CC2)N2CC2)cc1Oc1ccc(-c2ccc(F)cc2F)c(F)c1 [Compound 4] | 16.3 nM
17 | O=[N+]([O-])c1ccc(C(OP(=O)(N2CC2)N2CC2)C(F)(F)F)cc1Oc1ccc(-c2ccc(C(F)(F)F)cc2)nc1 (stereo not shown) [Compound 18] | > 10000 nM
18 | O=[N+]([O-])c1ccc(COP(=O)(N2CC2)N2CC2)cc1Oc1ccc(-c2ccc(F)cn2)cc1 [Compound 10] | 29.6 nM
19 | O=[N+]([O-])c1ccc(C(OP(=O)(N2CC2)N2CC2)C(F)(F)F)cc1Oc1ccc(-c2ccc(F)cc2)nc1 (stereo not shown) [Compound 17] | > 10000 nM
20 | Cc1cc(F)ccc1-c1ccc(Oc2cc(COP(=O)(N3CC3)N3CC3)ccc2[N+](=O)[O-])cc1F [Compound 5] | 5.04 nM
21 | O=[N+]([O-])c1cc(F)c(COP(=O)(N2CC2)N2CC2)cc1Oc1ccc(-c2ccc(F)cc2)cc1 [Compound 3] | 47.8 nM
22 | O=[N+]([O-])c1ccc(C(OP(=O)(N2CC2)N2CC2)C(F)(F)F)cc1Oc1ccc(-c2ccc(F)cc2F)cc1 (stereo not shown) [Compound 14] | > 1000 nM
23 | O=[N+]([O-])c1ccc(COP(=O)(N2CC2)N2CC2)cc1Oc1ccc(-c2ccc(F)cn2)c(F)c1 [Compound 11] | 92.2 nM
24 | O=[N+]([O-])c1ccc(COP(=O)(N2CC2)N2CC2)cc1Oc1ccc(-c2ccc(F)cc2)nc1 [Compound 7] | 19.7 nM
25 | O=[N+]([O-])c1ccc(C(OP(=O)(N2CC2)N2CC2)C(F)(F)F)cc1Oc1cccc(-c2ccc(F)cc2)c1 (stereo not shown) [Compound 13] | 1890 nM
26 | O=[N+]([O-])c1ccc(C(OP(=O)(N2CC2)N2CC2)C(F)(F)F)cc1Oc1ccc(-c2ccc(F)cn2)cc1 (stereo not shown) [Compound 19] | > 10000 nM
27 | O=[N+]([O-])c1ccc(COP(=O)(N2CC2)N2CC2)cc1Oc1ccc(-c2ccc(F)cc2F)nc1 [Compound 8] | 26.8 nM
28 | O=[N+]([O-])c1ccc(C(OP(=O)(N2CC2)N2CC2)C(F)(F)F)cc1Oc1ccc(-c2ccc(F)cc2F)c(F)c1 (stereo not shown) [Compound 16] | > 500 nM
29 | O=[N+]([O-])c1ccc(COP(=O)(N2CC2)N2CC2)cc1Oc1ccc(Cl)nc1 [Compound 9] | 56.1 nM
30 | O=[N+]([O-])c1ccc(COP(=O)(N2CC2)N2CC2)cc1Oc1ccc(-c2ccc(F)cc2F)nc1 [Compound 12] | 11.4 nM
31 | O=[N+]([O-])c1ccc(COP(=O)(N2CC2)N2CC2)cc1Oc1ccc(-c2ccc(F)cc2)c(F)c1 [Compound 1] | 40 nM

Same assay, conditions: Homo sapiens, NCI-H460; H460 cells, 2 h exposure, washed, further 70 h, Alamar Blue; read-out: Inhibitory effect of the proliferation of the cancer cells IC50

Row | Structure (SMILES) | IC50
32 | O=[N+]([O-])c1ccc(COP(=O)(N2CC2)N2CC2)cc1Oc1ccc(-c2ccc(F)cc2)cc1 [Compound 2] | 1.89 nM
33 | O=[N+]([O-])c1ccc(COP(=O)(N2CC2)N2CC2)cc1Oc1ccc(C(F)(F)F)nc1 [Compound 6] | 0.46 nM
34 | O=[N+]([O-])c1ccc(COP(=O)(N2CC2)N2CC2)cc1Oc1ccc(-c2ccc(F)cc2F)c(F)c1 [Compound 4] | 0.67 nM
35 | O=[N+]([O-])c1ccc(C(OP(=O)(N2CC2)N2CC2)C(F)(F)F)cc1Oc1ccc(-c2ccc(C(F)(F)F)cc2)nc1 (stereo not shown) [Compound 18] | 313 nM
36 | O=[N+]([O-])c1ccc(COP(=O)(N2CC2)N2CC2)cc1Oc1ccc(-c2ccc(F)cn2)cc1 [Compound 10] | 1.15 nM
37 | O=[N+]([O-])c1ccc(C(OP(=O)(N2CC2)N2CC2)C(F)(F)F)cc1Oc1ccc(-c2ccc(F)cc2)nc1 (stereo not shown) [Compound 17] | 35.5 nM
38 | Cc1cc(F)ccc1-c1ccc(Oc2cc(COP(=O)(N3CC3)N3CC3)ccc2[N+](=O)[O-])cc1F [Compound 5] | 0.59 nM
39 | O=[N+]([O-])c1cc(F)c(COP(=O)(N2CC2)N2CC2)cc1Oc1ccc(-c2ccc(F)cc2)cc1 [Compound 3] | 1.84 nM
40 | O=[N+]([O-])c1ccc(C(OP(=O)(N2CC2)N2CC2)C(F)(F)F)cc1Oc1ccc(-c2ccc(F)cc2F)cc1 (stereo not shown) [Compound 14] | 11.4 nM
41 | O=[N+]([O-])c1ccc(COP(=O)(N2CC2)N2CC2)cc1Oc1ccc(-c2ccc(F)cn2)c(F)c1 [Compound 11] | 0.211 nM
42 | O=[N+]([O-])c1ccc(COP(=O)(N2CC2)N2CC2)cc1Oc1ccc(-c2ccc(F)cc2)nc1 [Compound 7] | 0.71 nM
43 | O=[N+]([O-])c1ccc(C(OP(=O)(N2CC2)N2CC2)C(F)(F)F)cc1Oc1cccc(-c2ccc(F)cc2)c1 (stereo not shown) [Compound 13] | 30 nM
44 | O=[N+]([O-])c1ccc(C(OP(=O)(N2CC2)N2CC2)C(F)(F)F)cc1Oc1ccc(-c2ccc(F)cn2)cc1 (stereo not shown) [Compound 19] | 46.8 nM
45 | O=[N+]([O-])c1ccc(C(OP(=O)(N2CC2)N2CC2)C(F)(F)F)cc1Oc1ccc(-c2ccc(F)cc2)c(F)c1 (stereo not shown) [Compound 15] | 6.78 nM
46 | O=[N+]([O-])c1ccc(COP(=O)(N2CC2)N2CC2)cc1Oc1ccc(-c2ccc(F)cc2F)nc1 [Compound 8] | < 1.5 nM
47 | O=[N+]([O-])c1ccc(C(OP(=O)(N2CC2)N2CC2)C(F)(F)F)cc1Oc1ccc(-c2ccc(F)cc2F)c(F)c1 (stereo not shown) [Compound 16] | 7.26 nM
48 | O=[N+]([O-])c1ccc(COP(=O)(N2CC2)N2CC2)cc1Oc1ccc(Cl)nc1 [Compound 9] | < 1.5 nM
49 | O=[N+]([O-])c1ccc(COP(=O)(N2CC2)N2CC2)cc1Oc1ccc(-c2ccc(F)cc2)c(F)c1 [Compound 1] | 0.87 nM

From patent publication US20220387345A1, “ANTI-CANCER COMPOUNDS ACTING AS NON-PGP SUBSTRATE” (ASCENTAWITS PHARMACEUTICALS, LTD., priority 2019, published 2022)
